Measured values as given in paper PMC8728736, “A Reactivity-Based ^18F-Labeled Probe for PET Imaging of Oxidative Stress in Chemotherapy-Induced Cardiotoxicity” (Molecular Pharmaceutics, 2021).

Experiments:
[1] = PET/CT imaging of healthy mice; format: in vivo, C57BL/6 mice; settings: iv
Description: C57BL/6 mice (male, 25 ± 2 g, n = 3) were placed on the PET scanner bed and injected with ^18F-FPBT (1.7 ± 0.4 MBq) through the tail vein at the start time of PET acquisition. A dynamic PET scan was performed for 60 min, followed by a CT scan and ex vivo biodistribution. The PET data was reconstructed into 5 frames of 60 s, 3 frames of 300 s, and 4 frames of 600 s. Regions of interest (ROIs) were drawn and quantified using VivoQuant software (v3.0, inviCRO, LLC, Boston, USA). Organ uptake was calculated as standard uptake values (SUV), and data are reported as mean ± SD.

[2] = PET/CT imaging in rat model of doxorubicin-induced cardiotoxicity; format: in vivo, Wistar rats; settings: PET, 30 min scan, doxorubicin n = 6, saline n = 4
Description: Male Wistar rats (280–300 g) were used in all experiments. Subcutaneous 7 day osmotic pumps (Alzet), containing either doxorubicin (Cambridge Bioscience, 30 mg/kg cumulative dose) or vehicle (sterile 0.9% NaCl), were inserted into rats under 2% isoflurane in 100% oxygen.
Wistar rats that had received either doxorubicin treatment (male, 267 ± 19 g, n = 6) or saline (male, 303 ± 9 g, n = 4) via osmotic pumps for 7 days were injected with ^18F-FPBT (2.6 ± 1.5 MBq) via the tail vein on the PET/CT scanner bed. The time of injection coincided with the beginning of PET acquisition in order to obtain dynamic tracer uptake information. PET scans with the chest area in the field of vision were acquired for 30 min, followed by a CT scan, after which the animals were sacrificed and organs harvested, weighed, and gamma-counted as for the biodistribution protocol. The hearts were frozen in liquid nitrogen for gamma counting and oxidative stress biomarker assays. The PET data was reconstructed into three frames: 0–3 min, 3–10 min, and 10–30 min. For the time–activity curve, the PET data was reconstructed into 1 min per frame in the first 5 min and then 5 min per frame between 5 and 30 min. […] Radioactivity uptake in the heart was calculated as a standard uptake value ratio (SUVR) between left ventricle and blood. […]

[3] = Vial stability by radio-HPLC; format: physicochemical; settings: room temperature, 4 h
Description: ^18F-FPBT (1–4 MBq) in 100% ethanol or 5% ethanol in PBS containing sodium ascorbate (0.01 mg/mL) was kept at room temperature for 4 h and then analyzed by radio-HPLC.

[4] = Reactivity of 18F-FPBT to reactive oxygen species: nitric oxide; settings: diethylamine NONOate 100 μM, 30 min
Description: (§1) ^18F-FPBT (0.5–2.0 MBq) was reacted with potassium superoxide (source of superoxide, 1 mg), hydrogen peroxide (100 μM), Fenton-reaction-generated hydroxyl radicals (100 μM), iron(II) sulfate heptahydrate (100 μM), tert-butyl hydroperoxide (100 μM), tert-butoxy radical (100 μM), and 3-morpholinosydnomine (source of peroxynitrite (100 μM)) for 5 min or diethylamine NONOate (source of nitric oxide, 100 μM) for 30 min at room temperature, after which it was subjected to radio-HPLC analysis and % oxidation was calculated.

[5] = Reactivity of 18F-FPBT to other biologically relevant ROS; settings: ROS other than superoxide
Description: as §1

[6] = Lipophilicity, partition between 1-octanol and PBS; format: physicochemical; settings: 1-octanol/PBS, pH 7.4, 1-octanol/PBS pH 7.4, shake-flask, n = 6; read-out: LogD
Description: The lipophilicity of ^18F-FPBT and ^18F-FPBT-Ox was determined by a conventional partition method between 1-octanol and phosphate buffered saline (PBS), pH 7.4. 1-Octanol was presaturated with PBS before use. The radiotracer (∼2 KBq) was added to a mixture of PBS (200 μL) and 1-octanol (200 μL) in a 1.5 mL Eppendorf vial (n = 6). The mixture was vigorously agitated at rt for 5 min and then centrifuged at 3000 g for 10 min. A 100 μL aliquot from each layer was drawn for measurement in a gamma counter. The LogDoct/PBS was calculated as follows: log [(cpm in the 1-octanol layer – cpm 1-octanol blank)/(cpm in the PBS layer – cpm PBS blank)].

[7] = Reactivity of 18F-FPBT to reactive oxygen species: hydroxyl radical; settings: Fenton-reaction-generated hydroxyl radicals 100 μM, 5 min
Description: as §1

[8] = Reactivity of 18F-FPBT to reactive oxygen species: tert-butoxy radical; settings: 100 μM, 5 min
Description: as §1

[9] = Reactivity of 18F-FPBT to reactive oxygen species: hydrogen peroxide; settings: 100 μM, 5 min
Description: as §1

[10] = Post-mortem biodistribution in healthy rats; format: in vivo, Wistar rats; settings: for Ex vivo biodistribution, Blood / Ex vivo biodistribution, Bone / Ex vivo biodistribution, Brain / Ex vivo biodistribution, Heart / Ex vivo biodistribution, Kidney / Ex vivo biodistribution, Large Intestine / Ex vivo biodistribution, Liver / Ex vivo biodistribution, Lung / Ex vivo biodistribution, Muscle / Ex vivo biodistribution, Spleen / Ex vivo biodistribution, Urine / Ex vivo biodistribution, Small Intestine: healthy rats, mean ± SD, n = 3
Description: Wistar rats (male, 319 ± 20 g) were injected intravenously via the tail vein with either ^18F-FPBT (1.0 ± 0.4 MBq) or ^18F-FPBT-Ox (1.1 ± 0.5 MBq). The animals were sacrificed by cervical dislocation at 1, 5, or 30 min postinjection (n = 3/group). Organs and tissues of interest were harvested and weighed, and the radioactivity was measured in a gamma counter. Organ uptake was calculated as the percentage injected dose per gram of tissue mass (% ID/g). Data are reported as mean ± SD.

[11] = Reactivity of 18F-FPBT to reactive oxygen species: superoxide; settings: potassium superoxide, 5 min, ascorbate 1 mg/mL, n = 3
Description: as §1

- Background retention in heart, lungs, spleen and brain [1]: low nonspecific background retention
- Time to excretion by renal and hepatobiliary routes [1]: less than 1 h
- Blood clearance ([1]; dynamic PET 60 min): fast blood clearance
- Vial stability ([3]; 5% ethanol in PBS with ascorbic acid (0.01 mg/mL)): stable
- Vial stability ([3]; pure ethanol): stable
- LogD [6]: 1 ± 0.08
- Uptake by major organs (brain, heart, lung, spleen), in words ([10]; healthy Wistar rats, iv): rapid uptake
- Ex vivo biodistribution, Blood ([10]; iv, 1 min): 0.12 ± 0.05 % ID/g
- Ex vivo biodistribution, Bone ([10]; iv, 1 min): 0.14 ± 0.01 % ID/g
- Ex vivo biodistribution, Brain ([10]; iv, 1 min): 0.57 ± 0.04 % ID/g
- Ex vivo biodistribution, Heart ([10]; iv, 1 min): 1.33 ± 0.15 % ID/g
- Ex vivo biodistribution, Kidney ([10]; iv, 1 min): 1.58 ± 0.11 % ID/g
- Ex vivo biodistribution, Large Intestine ([10]; iv, 1 min): 0.21 ± 0.03 % ID/g
- Ex vivo biodistribution, Liver ([10]; iv, 1 min): 1.52 ± 0.25 % ID/g
- Ex vivo biodistribution, Lung ([10]; iv, 1 min): 0.66 ± 0.15 % ID/g
- Ex vivo biodistribution, Muscle ([10]; iv, 1 min): 0.08 ± 0.03 % ID/g
- Ex vivo biodistribution, Spleen ([10]; iv, 1 min): 0.67 ± 0.09 % ID/g
- Ex vivo biodistribution, Urine ([10]; iv, 1 min): 0.02 ± 0.01 % ID/g
- Ex vivo biodistribution, Blood ([10]; iv, 5 min): 0.06 ± 0.00 % ID/g
- Ex vivo biodistribution, Bone ([10]; iv, 5 min): 0.18 ± 0.18 % ID/g
- Ex vivo biodistribution, Brain ([10]; iv, 5 min): 0.33 ± 0.04 % ID/g
- Ex vivo biodistribution, Heart ([10]; iv, 5 min): 0.37 ± 0.08 % ID/g
- Ex vivo biodistribution, Kidney ([10]; iv, 5 min): 0.60 ± 0.27 % ID/g
- Ex vivo biodistribution, Large Intestine ([10]; iv, 5 min): 0.13 ± 0.02 % ID/g
- Ex vivo biodistribution, Liver ([10]; iv, 5 min): 1.75 ± 0.19 % ID/g
- Ex vivo biodistribution, Lung ([10]; iv, 5 min): 0.34 ± 0.03 % ID/g
- Ex vivo biodistribution, Muscle ([10]; iv, 5 min): 0.05 ± 0.03 % ID/g
- Ex vivo biodistribution, Small Intestine ([10]; iv, 5 min): 0.53 ± 0.31 % ID/g
- Ex vivo biodistribution, Spleen ([10]; iv, 5 min): 0.18 ± 0.01 % ID/g
- Ex vivo biodistribution, Urine ([10]; iv, 5 min): 1.22 ± 0.89 % ID/g
- Ex vivo biodistribution, Blood ([10]; iv, 30 min): 0.03 ± 0.00 % ID/g
- Ex vivo biodistribution, Bone ([10]; iv, 30 min): 0.13 ± 0.02 % ID/g
- Ex vivo biodistribution, Brain ([10]; iv, 30 min): 0.06 ± 0.01 % ID/g
- Ex vivo biodistribution, Heart ([10]; iv, 30 min): 0.20 ± 0.04 % ID/g
- Ex vivo biodistribution, Kidney ([10]; iv, 30 min): 0.17 ± 0.00 % ID/g
- Ex vivo biodistribution, Large Intestine ([10]; iv, 30 min): 0.10 ± 0.03 % ID/g
- Ex vivo biodistribution, Liver ([10]; iv, 30 min): 0.47 ± 0.13 % ID/g
- Ex vivo biodistribution, Lung ([10]; iv, 30 min): 0.18 ± 0.01 % ID/g
- Ex vivo biodistribution, Muscle ([10]; iv, 30 min): 0.08 ± 0.02 % ID/g
- Ex vivo biodistribution, Small Intestine ([10]; iv, 30 min): 5.01 ± 0.90 % ID/g
- Ex vivo biodistribution, Spleen ([10]; iv, 30 min): 0.05 ± 0.01 % ID/g
- Ex vivo biodistribution, Urine ([10]; iv, 30 min): 3.79 ± 2.12 % ID/g
- Defluorination in vivo (radioactivity accumulation in the bone) ([10]; rats and mice): inert toward defluorination
SMILES: [18F]CCCN1c2ccccc2SC1c1ccccc1 (stereo not shown) [^18F-FPBT, 3-(3-[^18F]Fluoropropyl)-2-phenyl-2,3-dihydrobenzo[d]thiazole]
- SUVR LV/blood (heart uptake) of doxorubicin-treated rats compared to vehicle control group [2]: statistically significantly (p < 0.05) higher
- SUVR LV/blood (heart uptake) of doxorubicin-treated rats compared to vehicle control group ([2]; listed as 18F-FBPT): significantly higher (P < 0.05) uptake
- Reactivity to nitric oxide [4]: some reactivity
- Reactivity to other biologically relevant ROS [5]: little or no reactivity
- Reactivity to hydroxyl radical [7]: inert
- Oxidation by tert-butoxy radical [8]: no oxidation was observed
- Reactivity to hydrogen peroxide [9]: some reactivity
- Route of clearance / excretion, in words ([10]; healthy Wistar rats, iv): excreted by both renal and hepatobiliary routes
- % oxidation by superoxide in the presence of ascorbate [11]: 31 ± 5%
